From patent publication US12209079B2 (GENERAL INCORPORATED ASSOCIATION PHARMA VALLEY PROJECT …, priority 2017, dated 2025)
Structures can show the parent of a compound that is named as a salt.

What was measured:
[1] = molecular target: rhIDO (recombinant human IDO) (Homo sapiens, UniProt P14902); assay: Enzyme assay using rhIDO (rate of kynurenine production); type: biochemical; settings: 2 h; final concentration of the compound 10 μM; rate relative to reaction without compound; read-out: rhIDO-mediated kynurenine production
Sequence of rhIDO (recombinant human IDO) (P14902 whole entry): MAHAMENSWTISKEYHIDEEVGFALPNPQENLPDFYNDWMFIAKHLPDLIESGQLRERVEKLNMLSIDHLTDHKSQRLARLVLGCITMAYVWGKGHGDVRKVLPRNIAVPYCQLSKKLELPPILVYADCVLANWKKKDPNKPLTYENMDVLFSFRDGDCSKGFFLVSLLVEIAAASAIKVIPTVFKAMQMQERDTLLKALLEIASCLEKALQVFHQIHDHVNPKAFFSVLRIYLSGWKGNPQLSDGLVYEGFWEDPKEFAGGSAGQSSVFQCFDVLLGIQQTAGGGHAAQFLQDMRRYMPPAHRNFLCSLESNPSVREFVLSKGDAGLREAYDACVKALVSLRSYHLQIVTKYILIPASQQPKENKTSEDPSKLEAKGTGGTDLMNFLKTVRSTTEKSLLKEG
Procedure: Enzyme Assay Protocol Using rhIDO (Recombinant Human IDO)
4 μL of a compound solution was added to 176 μL of a rhIDO reaction solution (0.5 M potassium phosphate buffer (20 μL), 0.2 M ascorbic acid (20 μL), 0.5 mM methylene blue (4 μL), 10 mg/mL catalase (2 μL), H2O (128 μL), and rhIDO (2 μL)). The mixture was pipetted and preincubated at 37° C. for 10 minutes. Then, the whole amount was brought to 200 μL by the addition of 20 μL of a 2 mM aqueous tryptophan solution, and the mixture was pipetted again and reacted at 37° C. for 120 minutes. After the reaction, the enzymatic reaction was terminated by the addition of 40 μL of a 30% [v/v] aqueous trichloroacetic acid solution to the reaction solution. The mixture was well stirred by pipetting and heated at 50° C. for 15 minutes so that N-formylkynurenine was converted to kynurenine. The reaction solution thus heated was centrifuged (15,000 rpm, 5 min, 24° C.), and 150 μL of the supernatant was transferred to a transparent 96-well flat-bottomed plate, followed by the measurement of absorbance at 490 nm using SpectraMax MSSK (background measurement). After the measurement, a solution of 2% [w/v] p-dimethylbenzaldehyde in acetic acid was added at 150 μL/well and reacted for 5 minutes, followed by the measurement of absorbance at 490 nm again. The rate of kynurenine production was calculated according to the following expression. Rate of kynurenine production (%) for each compound in the case of using rhIDO={(Absorbance at 490 nm in the tryptophan-containing aqueous solution comprising rhIDO and the compound of the present invention−Absorbance of the background)/(Absorbance at 490 nm in the tryptophan-containing aqueous solution without the addition of the compound solution−Absorbance of the background)}×100 Enzyme Assay Protocol Using rhTDO (Recombinant Human TDO)

[2] = molecular target: T1, TDO in A172 cells (Homo sapiens, UniProt P48775); assay: TDO cell-based assay, kynurenine production in A172 cells; settings: A 172; final concentration of the compound 10 μM; rate relative to culture without compound
T1 construct: endogenous in cells; host or cells: A172 cells
T1 sequence (P48775 whole entry): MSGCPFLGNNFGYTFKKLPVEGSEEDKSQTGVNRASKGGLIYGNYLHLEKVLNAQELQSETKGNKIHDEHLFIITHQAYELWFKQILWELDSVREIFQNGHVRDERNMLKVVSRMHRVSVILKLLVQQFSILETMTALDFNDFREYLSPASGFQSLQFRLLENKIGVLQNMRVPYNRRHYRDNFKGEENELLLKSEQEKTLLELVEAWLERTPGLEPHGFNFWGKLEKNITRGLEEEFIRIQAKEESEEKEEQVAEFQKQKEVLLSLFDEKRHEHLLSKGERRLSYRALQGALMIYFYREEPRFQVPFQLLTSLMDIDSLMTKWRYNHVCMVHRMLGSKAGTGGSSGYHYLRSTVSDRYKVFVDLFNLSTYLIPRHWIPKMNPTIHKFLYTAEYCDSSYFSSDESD
Procedure: A172 cells (3.0×10^5 cells/mL) suspended in a culture medium for assay (PRMI-1640; Wako 186-02155, 5% FBS, 50 units/mL penicillin, and 50 μg/mL streptomycin) were inoculated at 100 μL/well to a transparent 96-well flat-bottomed plate and cultured at 37° C. for 24 hours in 5% CO2. The culture medium was removed from the cells thus cultured. A culture medium for assay was added at 80 μL/well, and further, a compound solution was added at 10 μL/well. The cells were preincubated for 1 hour. Then, the whole amount was brought to 100 μL/well by the addition of 10 μL/well of a 5 mM aqueous tryptophan solution (final concentration of L-tryptophan: 524 μM), and the cells were cultured for 24 hours. After the culture, absorbance was measured at 460 nm using SpectraMax MSSK (Molecular Devices, LLC) (background measurement). After the measurement, a kynurenine quantification reagent (prepared with 7% [v/v] aqueous trichloroacetic acid solution and a solution of 2% [w/v] p-dimethylbenzaldehyde in acetic acid at 2:5 [v/v]) was added at 200 μL/well and reacted for 5 minutes, followed by the measurement of absorbance at 460 nm again. The rate of kynurenine production was calculated according to the following expression. Rate of kynurenine production (%) for each compound in the case of using A172 cells={(Absorbance at 460 nm in the tryptophan-containing culture medium comprising the A172 cells and the solution of the compound of the present invention−Absorbance of the background)/(Absorbance at 460 nm in the tryptophan-containing culture medium without the addition of the compound solution−Absorbance of the background)}×100

[3] = molecular target: T2, IDO in A431 cells (Homo sapiens, UniProt P14902); assay: IDO cell-based assay, kynurenine production in IFN-γ stimulated A431 cells; settings: A-431, 24 h; final concentration of the compound 10 μM; rate relative to culture without compound
T2 construct: endogenous in cells; host or cells: A431 cells, IFN-γ stimulated
T2 sequence (P14902 whole entry): as the sequence (P14902 whole entry) above
Procedure: A431 cells (3.0×10^5 cells/mL) suspended in a culture medium for assay (D-MEM; Wako 040-30095, 5% FBS, 50 units/mL penicillin, 50 μg/mL streptomycin, and 2 mM L-glutamine) were inoculated at 100 μL/well to a transparent 96-well flat-bottomed plate and cultured at 37° C. for 24 hours in 5% CO2. The culture medium was removed from the cells thus cultured. A tryptophan-containing culture medium (culture medium for assay supplemented with 178 μM L-tryptophan) was added at 80 μL/well, and further, a compound solution was added at 10 μL/well. The cells were preincubated for 1 hour. Then, the whole amount was brought to 100 μL/well by the addition of 10 μL/well of IFN-γ diluted into 100 ng/mL with a tryptophan-containing culture medium, and the cells were cultured for 24 hours. After the culture, absorbance was measured at 460 nm using SpectraMax MSSK (Molecular Devices, LLC) (background measurement). After the measurement, a kynurenine quantification reagent (prepared with 7% [v/v] aqueous trichloroacetic acid solution and a solution of 2% [w/v] p-dimethylbenzaldehyde in acetic acid at 2:5 [v/v]) was added at 200 μL/well and reacted for 5 minutes, followed by the measurement of absorbance at 460 nm again. The rate of kynurenine production was calculated according to the following expression. Rate of kynurenine production (%) for each compound in the case of using A431 cells={(Absorbance at 460 nm in the tryptophan-containing culture medium comprising the A431 cells and the solution of the compound of the present invention−Absorbance of the background)/(Absorbance at 460 nm in the tryptophan-containing culture medium without the addition of the compound solution−Absorbance of the background)}×100 TDO Cell-Based Assay Protocol

[4] = molecular target: rhTDO (recombinant human TDO) (Homo sapiens, UniProt P48775); assay: Enzyme assay using rhTDO (rate of kynurenine production); type: biochemical; settings: 2 h; final concentration of the compound 10 μM; rate relative to reaction without compound; read-out: rhTDO-mediated kynurenine production
Sequence of rhTDO (recombinant human TDO) (P48775 whole entry): as the sequence (P48775 whole entry) above
Procedure: 4 μL of a compound solution was added to 176 μL of a rhTDO reaction solution (0.5 M potassium phosphate buffer (20 μL), 0.2 M ascorbic acid (20 μL), 0.5 mM methylene blue (4 μL), 10 mg/mL catalase (2 μL), H2O (128 μL), and rhTDO (2 μL)). The mixture was pipetted and preincubated at 37° C. for 10 minutes. Then, the whole amount was brought to 200 μL by the addition of 20 μL of a 20 mM aqueous tryptophan solution, and the mixture was pipetted again and reacted at 37° C. for 120 minutes. After the reaction, the enzymatic reaction was terminated by the addition of 40 μL of a 30% [v/v] aqueous trichloroacetic acid solution to the reaction solution. The mixture was well stirred by pipetting and heated at 50° C. for 15 minutes so that N-formylkynurenine was converted to kynurenine. The reaction solution thus heated was centrifuged (15,000 rpm, 5 min, 24° C.), and 150 μL of the supernatant was transferred to a transparent 96-well flat-bottomed plate, followed by the measurement of absorbance at 490 nm using SpectraMax M5 SK (background measurement). After the measurement, a solution of 2% [w/v] p-dimethylbenzaldehyde in acetic acid was added at 150 μL/well and reacted for 5 minutes, followed by the measurement of absorbance at 490 nm again. The rate of kynurenine production was calculated according to the following expression. Rate of kynurenine production (%) for each compound in the case of using rhTDO={(Absorbance at 490 nm in the tryptophan-containing aqueous solution comprising rhTDO and the compound of the present invention−Absorbance of the background)/(Absorbance at 490 nm in the tryptophan-containing aqueous solution without the addition of the compound solution−Absorbance of the background)}×100 IDO Cell-Based Assay Protocol

SMILES	remaining activity at 10 µM [1]	remaining activity at 10 µM [2]	remaining activity at 10 µM [3]	remaining activity at 10 µM [4]
Brc1ccc(CCN2CN=C(SCc3ccccc3CSC3=NCN(CCc4ccc(Br)cc4)CN3)NC2)cc1 [Compound 20, 1,2-bis(((5-(4-bromophenethyl)-1,4,5,6-tetrahydro-1,3,5-triazin-2-yl)thio)methyl)benzene]	27%	0%	6%	44%
Clc1ccc(CCN2CN=C(SCc3ccccc3CSC3=NCN(CCc4ccc(Cl)cc4Cl)CN3)NC2)c(Cl)c1 [Compound 21, 1,2-bis(((5-(2,4-dichlorophenethyl)-1,4,5,6-tetrahydro-1,3,5-triazin-2-yl)thio)methyl)benzene]	30%	-1%	6%	54%
Clc1ccc(CCN2CN=C(SCc3ccccc3CSC3=NCN(CCc4ccc(Cl)c(Cl)c4)CN3)NC2)cc1Cl [Compound 22, 1,2-bis(((5-(3,4-dichlorophenethyl)-1,4,5,6-tetrahydro-1,3,5-triazin-2-yl)thio)methyl)benzene]	20%	-1%	6%	21%
Cc1ccc(CCN2CN=C(SCc3ccccc3CSC3=NCN(CCc4ccc(C)c(C)c4)CN3)NC2)cc1C [Compound 23, 1,2-bis(((5-(3,4-dimethylphenethyl)-1,4,5,6-tetrahydro-1,3,5-triazin-2-yl)thio)methyl)benzene]	18%	-4%	6%	24%
Cc1ccc(C)c(CCN2CN=C(SCc3ccccc3CSC3=NCN(CCc4cc(C)ccc4C)CN3)NC2)c1 [Compound 24, 1,2-bis(((5-(2,5-dimethylphenethyl)-1,4,5,6-tetrahydro-1,3,5-triazin-2-yl)thio)methyl)benzene]	27%	-2%	4%	25%
COc1ccc(CN2CN=C(SCc3ccccc3CSC3=NCN(Cc4ccc(OC)cc4)CN3)NC2)cc1 [Compound 26, 1,2-bis(((5-(4-methoxybenzyl)-1,4,5,6-tetrahydro-1,3,5-triazin-2-yl)thio)methyl)benzene]	36%	-5%	5%	44%
COc1ccc(CN2CN=C(SCc3ccccc3CSC3=NCN(Cc4ccc(OC)cc4OC)CN3)NC2)c(OC)c1 [Compound 27, 1,2-bis(((5-(2,4-dimethoxybenzyl)-1,4,5,6-tetrahydro-1,3,5-triazin-2-yl)thio)methyl)benzene]	33%	-3%	7%	56%
Clc1ccccc1CCN1CN=C(SCc2ccccc2CSC2=NCN(CCc3ccccc3Cl)CN2)NC1 [Compound 28, 1,2-bis(((5-(2-chlorophenethyl)-1,4,5,6-tetrahydro-1,3,5-triazin-2-yl)thio)methyl)benzene]	40%	3%	7%	53%
O=C1CC(=O)NC(SCc2ccccc2CSC2=NC(=O)CC(=O)N2)=N1 [Compound 30, 2,2′-((1,2-phenylenebis(methylene))bis(sulfanediyl))bis(pyrimidine-4,6(1H,5H)-dione)]	141%	94%	82%	126%
COC(=O)c1c(CSC(=N)N)[nH]c2ccccc12 [Compound 32, Methyl 2-((carbamimidoylthio)methyl)-1H-indole-3-carboxylate hydrobromide]	59%	52%	54%	51%
N=C(N)SCc1cccnc1CSC(=N)N [Compound 34, Pyridine-2,3-diylbis(methylene) dicarbamimidothioate dihydrobromide]	25%	47%	29%	27%
COc1ccc(CSC(=N)N)c(CSC(=N)N)c1 [Compound 35, (4-Methoxy-1,2-phenylene)bis(methylene) dicarbamimidothioate dihydrobromide]	24%	0%	4%	7%
N=C(N)SCc1cc(Cl)c(Cl)cc1CSC(=N)N [Compound 36, (4,5-dichloro-1,2-phenylene)bis(methylene) dicarbamimidothioate dihydrobromide]	< 1%	-15%	1%	< 3%
